In the supplement of paper PMC13380429:

Experiments:
A549-ACE2 [1] = assay: phospholipidosis EC50; higher = less potent phospholipidosis inducer
U2OS [2] = assay: relative viability EC50 (midpoint between 100% and the lowest measured viability); higher = less toxic; conditions: 72 h
Caco-2 [3] = assay: drug sensitivity score (DSS) for viability; higher = more toxic; extreme values may be limits of the assay; conditions: 72 h
U2OS [4] = assay: as above; conditions: 72 h
HepG2 [5] = assay: as above; conditions: 72 h
Calu-3 [6] = assay: as above; conditions: 72 h
Vero E6 [7] = assay: as above; conditions: 72 h
Caco-2 [8] = assay: cell viability relative to DMSO; higher = less toxic; conditions: 72 h
U2OS [9] = assay: as above; conditions: 72 h
HepG2 [10] = assay: as above; conditions: 72 h
Calu-3 [11] = assay: as above; conditions: 72 h
Vero E6 [12] = assay: as above; conditions: 72 h
[13] = system: A549-ACE2 infected with SARS-CoV-2; assay: morphology score (similarity to uninfected cells); higher = more like uninfected cells; conditions: 24 h
A549-ACE2 [14] = assay: drug-induced phospholipidosis relative to tamoxifen; higher = more phospholipidosis
[15] = system: A549-ACE2 infected with SARS-CoV-2; assay: cell count relative to DMSO; higher = less toxic; conditions: 24 h
[16] = system: A549-ACE2 infected with SARS-CoV-2; assay: SARS-CoV-2 infection rate relative to DMSO; higher = more infection; conditions: 24 h
HepG2 [17] = assay: relative viability EC50 (midpoint between 100% and the lowest measured viability); higher = less toxic; conditions: 72 h
Calu-3 [18] = assay: as above; conditions: 72 h

CN1CCC[C@@H](CC2c3ccccc3Sc3ccccc32)C1 (racemic) [metixene]
Conditions	SARS-CoV-2 infection rate [%]	cell count [%]	cell viability [%]	morphology score	phospholipidosis EC50 [µM]
A549-ACE2 [1], 24 h	–	–	–	–	5.44
A549-ACE2 [1], 48 h	–	–	–	–	9.46
A549-ACE2 [1], 72 h	–	–	–	–	4.98
Caco-2 [8], 1 nM	–	–	85.9	–	–
Caco-2 [8], 10 nM	–	–	94.5	–	–
Caco-2 [8], 100 nM	–	–	94.7	–	–
Caco-2 [8], 1000 nM	–	–	120	–	–
Caco-2 [8], 10000 nM	–	–	71.9	–	–
Calu-3 [11], 1 nM	–	–	102	–	–
Calu-3 [11], 10 nM	–	–	100	–	–
Calu-3 [11], 100 nM	–	–	100	–	–
Calu-3 [11], 1000 nM	–	–	100	–	–
Calu-3 [11], 10000 nM	–	–	73.1	–	–
HepG2 [10], 1 nM	–	–	104	–	–
HepG2 [10], 10 nM	–	–	104	–	–
HepG2 [10], 100 nM	–	–	105	–	–
HepG2 [10], 1000 nM	–	–	101	–	–
HepG2 [10], 10000 nM	–	–	72.3	–	–
U2OS [9], 1 nM	–	–	105	–	–
U2OS [9], 10 nM	–	–	95.3	–	–
U2OS [9], 100 nM	–	–	99.4	–	–
U2OS [9], 1000 nM	–	–	93.2	–	–
U2OS [9], 10000 nM	–	–	89.8	–	–
Vero E6 [12], 1 nM	–	–	96.6	–	–
Vero E6 [12], 10 nM	–	–	109	–	–
Vero E6 [12], 100 nM	–	–	105	–	–
Vero E6 [12], 1000 nM	–	–	101	–	–
Vero E6 [12], 10000 nM	–	–	74	–	–
[13], 0.1 µM	–	–	–	0.09	–
[13], 0.3 µM	–	–	–	-0.03	–
[13], 1 µM	–	–	–	0.65	–
[13], 3 µM	–	–	–	0.88	–
[15], 0.1 µM	–	106	–	–	–
[15], 0.3 µM	–	99	–	–	–
[15], 1 µM	–	110	–	–	–
[15], 3 µM	–	129	–	–	–
[16], 0.1 µM	94	–	–	–	–
[16], 0.3 µM	103	–	–	–	–
[16], 1 µM	65	–	–	–	–
[16], 3 µM	30	–	–	–	–

Conditions	drug sensitivity score	relative viability EC50 [µM]
Caco-2 [3]	0.6	–
Calu-3 [6]	1.1	–
HepG2 [5]	1.1	–
U2OS [2]	–	> 10
U2OS [4]	0	–
Vero E6 [7]	0.9	–

drug-induced phospholipidosis [%], A549-ACE2 [14]
Conditions	0.3 µM	0.833333 µM	3.33333 µM	6.66667 µM	10 µM	30 µM
24 h	0.41	9.1	52.9	78.2	91.4	121
48 h	4.61	5.46	39.9	75.4	93.7	145
72 h	4.08	3.27	28.5	66.5	82.7	–

CCN(CC)CCCCN1c2ccccc2Oc2ccc(Cl)cc21 [10-DEBC]
Conditions	SARS-CoV-2 infection rate [%]	cell count [%]	cell viability [%]	morphology score	phospholipidosis EC50 [µM]
A549-ACE2 [1], 24 h	–	–	–	–	3.06
A549-ACE2 [1], 48 h	–	–	–	–	3.97
A549-ACE2 [1], 72 h	–	–	–	–	4.34
Caco-2 [8], 1 nM	–	–	93.2	–	–
Caco-2 [8], 10 nM	–	–	99.6	–	–
Caco-2 [8], 100 nM	–	–	100	–	–
Caco-2 [8], 1000 nM	–	–	102	–	–
Caco-2 [8], 10000 nM	–	–	66.1	–	–
Calu-3 [11], 1 nM	–	–	112	–	–
Calu-3 [11], 10 nM	–	–	105	–	–
Calu-3 [11], 100 nM	–	–	110	–	–
Calu-3 [11], 1000 nM	–	–	103	–	–
Calu-3 [11], 10000 nM	–	–	39	–	–
HepG2 [10], 1 nM	–	–	90.3	–	–
HepG2 [10], 10 nM	–	–	103	–	–
HepG2 [10], 100 nM	–	–	87.4	–	–
HepG2 [10], 1000 nM	–	–	88.7	–	–
HepG2 [10], 10000 nM	–	–	45.3	–	–
U2OS [9], 1 nM	–	–	100	–	–
U2OS [9], 10 nM	–	–	96.4	–	–
U2OS [9], 100 nM	–	–	94.7	–	–
U2OS [9], 1000 nM	–	–	93.3	–	–
U2OS [9], 10000 nM	–	–	80.1	–	–
Vero E6 [12], 1 nM	–	–	99.5	–	–
Vero E6 [12], 10 nM	–	–	97.4	–	–
Vero E6 [12], 100 nM	–	–	93.7	–	–
Vero E6 [12], 1000 nM	–	–	92.6	–	–
Vero E6 [12], 10000 nM	–	–	63	–	–
[13], 0.1 µM	–	–	–	-0.05	–
[13], 0.3 µM	–	–	–	0.39	–
[13], 1 µM	–	–	–	0.55	–
[13], 3 µM	–	–	–	0.9	–
[15], 0.1 µM	–	107	–	–	–
[15], 0.3 µM	–	103	–	–	–
[15], 1 µM	–	107	–	–	–
[15], 3 µM	–	127	–	–	–
[16], 0.1 µM	109	–	–	–	–
[16], 0.3 µM	87	–	–	–	–
[16], 1 µM	76	–	–	–	–
[16], 3 µM	55	–	–	–	–

Conditions	drug sensitivity score	relative viability EC50 [µM]
Caco-2 [3]	1.4	–
Calu-3 [6]	3.1	–
Calu-3 [18]	–	3.43
HepG2 [5]	4.7	–
HepG2 [17]	–	1.76
U2OS [2]	–	> 10
U2OS [4]	0.8	–
Vero E6 [7]	3	–

drug-induced phospholipidosis [%], A549-ACE2 [14]
Conditions	0.3 µM	0.833333 µM	3.33333 µM	6.66667 µM	10 µM
24 h	0.51	1.58	47.7	76.9	81.2
48 h	1.97	2.56	41	88.5	101
72 h	2.46	1.09	30.1	85.5	98.7
